Data: patent US20220153751A1, “BIFUNCTIONAL COMPOUNDS” (BioTheryX, Inc., priority 2018, published 2022)

How the values were obtained:
Assay type in all cases: cell-based
[1] = tested on: MOLM-13 cells; experiment: MOLM-13 cell viability assay (CellTiter-Glo); conditions: Homo sapiens, MOLM-13, 72 h, 3 days, read-out: MOLM-13 Cell Viability % DMSO at 1 μM
Protocol: MOLM-13 cells were cultured in RPMI 1640 media supplemented with 10% fetal bovine serum, streptomycin and penicillin, and were plated in walled 96-well plates at 2500 cells/well. Cells were incubated in DMSO (control) or the indicated compound for 3 days at 37° C. and 5% CO2. Following the incubation period, 100 μL of CellTiterGlow (CTG) reagent (CellTiter-Glo® Luminescent Cell Viability Assay, Promega (Madison, Wis.)) was added to each well. Following a 10 minutes incubation with shaking, luminescence was measured using the EnVision Multimode plate reader.
The MOLM-13 cell viability values as % DMSO are reported as “A”, “B”, “C”, or “D”. “A” represents a % viability value of less than 50% (value <50%). “B” represents a % viability value of equal to or more than 50% and less than 70% (50%≤value<70%). “C” represents a % viability value of equal to or more than 70% and less than 90% (70%≤value<90%). “D” represents a % viability value of equal or more than 90% (value ≥90%).

[2] = target: T1, CDK16 (Homo sapiens, UniProt Q00536); experiment: CDK16 degradation assay (Western blot, MV-4-11 cells); conditions: 6-8 h; for Dmax at 0.1 µM: MV4-11, 0.1 μM; for Dmax at 1 µM: MV4-11, 1 μM
T1 construct: Whole cell extracts were prepared using RIPA buffer; endogenous in cells; host or cells: MV-4-11
Protocol: (§1) MV-4-11 cells were grown in RPMI 1640 media supplemented with 10% fetal bovine serum, streptomycin and penicillin.
(§2) Cells were cultured at approximately 10^6 cells per mL and incubated in DMSO or the indicated compound for 6-8 h. Whole cell extracts were prepared using RIPA buffer according to manufacturer's protocol (Pierce). Briefly, 3×10^6 cells were washed once in PBS, the cell pellets were resuspended in RIPA buffer and allowed to incubate for 15 minutes on ice. Cells debris was removed by centrifugation and the cleared whole cell lysates were transferred to new tubes for further analysis.
(§3) For Western blot analysis, whole cell protein extracts were separated on 4-12% SDS-polyacrylamide gels, transferred to nitrocellulose and probed with the indicated primary antibodies. Membranes were subsequently washed and probed with the appropriate IRDye secondary antibodies (LI-COR). The signal was detected using the Odyssey Imaging System (LI-COR).
(§4) The following antibodies were used in these studies: Anti-eRF3/GSPT1: Abcam, ab126090 (Cambridge, Mass.); Anti-Ikaros: Abcam, ab191394 (Cambridge, Mass.); Anti-CK1α: Abcam, ab108296 (Cambridge, Mass.); Anti-CDK9: Santa Cruz Biotechnology, sc13130 (Dallas, Tex.); Anti-CDK16: Millipore Sigma, HPA001366 (St. Louis, Mo.); 3-actin (8H10comD10) mouse monoclonal antibody: Cell Signaling Technology, #3700 (Danvers, Mass.); IRDye 680RD Goat anti-rabbit antibody: LI-COR, 926-68071 (Lincoln, Nebr.); IRDye 800CW Goat anti-mouse antibody: LI-COR, 926-32210 (Lincoln, Nebr.).
(§5) CDK9 activities are shown in Table 4 at two different concentrations. CDK16 activities are shown in Table 5 at two different concentrations. In each of Tables 1-5, the % degradation values are reported as “A”, “B”, “C”, or “D”. “A” represents a % degradation value of less than 25% (value <25%). “B” represents a % degradation value of equal to or more than 25% and less than 50% (25%≤value<50%). “C” represents a % degradation value of equal to or more than 50% and less than 75% (50%≤value<75%). “D” represents a % degradation value of equal to or more than 75% (value ≥75%).

[3] = target: T2, CDK9 (Homo sapiens, UniProt P50750); experiment: CDK9 degradation assay (Western blot, MV-4-11 cells); conditions: 6-8 h; for Dmax at 0.1 µM: MV4-11, 0.1 μM; for Dmax at 1 µM: MV4-11, 1 μM
T2 construct: Whole cell extracts were prepared using RIPA buffer; endogenous in cells; host or cells: MV-4-11
Protocol: as §1, §2, §3, §4, §5

T2 sequence (P50750 whole entry): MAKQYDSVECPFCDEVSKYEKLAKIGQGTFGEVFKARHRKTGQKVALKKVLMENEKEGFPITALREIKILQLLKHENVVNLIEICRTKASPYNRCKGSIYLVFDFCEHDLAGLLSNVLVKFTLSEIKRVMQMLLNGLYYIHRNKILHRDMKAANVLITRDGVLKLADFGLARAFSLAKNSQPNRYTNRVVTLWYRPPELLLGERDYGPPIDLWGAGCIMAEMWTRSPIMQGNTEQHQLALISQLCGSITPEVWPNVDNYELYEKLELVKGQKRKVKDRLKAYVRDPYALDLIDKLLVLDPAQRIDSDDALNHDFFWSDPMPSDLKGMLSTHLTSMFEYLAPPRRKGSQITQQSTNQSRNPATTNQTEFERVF
T1 sequence (Q00536 whole entry): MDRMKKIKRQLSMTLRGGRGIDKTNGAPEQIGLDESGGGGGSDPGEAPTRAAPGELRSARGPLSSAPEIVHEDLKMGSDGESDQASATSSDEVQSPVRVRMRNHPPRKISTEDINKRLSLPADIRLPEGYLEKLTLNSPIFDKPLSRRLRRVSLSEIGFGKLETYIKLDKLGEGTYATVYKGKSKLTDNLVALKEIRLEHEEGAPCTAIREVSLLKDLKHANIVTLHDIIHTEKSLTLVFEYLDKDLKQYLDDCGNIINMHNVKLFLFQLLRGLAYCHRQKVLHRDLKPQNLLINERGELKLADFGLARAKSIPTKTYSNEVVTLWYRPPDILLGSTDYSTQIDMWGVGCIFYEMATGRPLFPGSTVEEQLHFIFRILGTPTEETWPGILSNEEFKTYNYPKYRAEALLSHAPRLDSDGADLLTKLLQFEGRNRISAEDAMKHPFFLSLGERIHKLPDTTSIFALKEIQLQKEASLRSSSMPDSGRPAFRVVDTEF

Dmax at 0.1 µM [2] | Dmax at 1 µM [2] | Dmax at 0.1 µM [3] | Dmax at 1 µM [3] | Structure (SMILES) | viability at 1 µM [1]
 |  |  |  | Cn1ncc(-c2nc(N[C@H]3CC[C@H](NCC(=O)NCCCCNCC(=O)NCc4scc5c4C(=O)N(C4CCC(=O)NC4=O)C5=O)CC3)ncc2F)c1CC1CC1 (some centres unmarked) [Compound 48, 2-(((1r,4r)-4-((4-(5-(cyclopropylmethyl)-1-methyl-1H-pyrazol-4-yl)-5-fluoropyrimidin-2-yl)amino)cyclohexyl)amino)-N-(4-((2-(((5-(2,6-dioxopiperidin-3-yl)-4,6-dioxo-5,6-dihydro-4H-thieno[3,4-c]pyrrol-1-yl)methyl)amino)-2-oxoethyl)amino)butyl)acetamide] | > 90%
 |  |  |  | Cn1ncc(-c2nc(N[C@H]3CC[C@H](NCCCCCCCNCC(=O)NCc4cc5c(s4)C(=O)N(C4CCC(=O)NC4=O)C5)CC3)ncc2Cl)c1CC1CC1 (some centres unmarked) [Compound 53, 2-((7-(((1r,4r)-4-((5-chloro-4-(5-(cyclopropylmethyl)-1-methyl-1H-pyrazol-4-yl)pyrimidin-2-yl)amino)cyclohexyl)amino)heptyl)amino)-N-((5-(2,6-dioxopiperidin-3-yl)-6-oxo-5,6-dihydro-4H-thieno[2,3-c]pyrrol-2-yl)methyl)acetamide] | > 90%
50 to 75% | ≥ 75% | ≥ 75% | ≥ 75% | Cn1ncc(-c2nc(N[C@H]3CC[C@H](NCCCCCCCCNC(=O)NCc4cc5c(s4)C(=O)N(C4CCC(=O)NC4=O)C5)CC3)ncc2F)c1CC1CC1 (some centres unmarked) [Compound 23, 1-(8-(((1r,4r)-4-((4-(5-(cyclopropylmethyl)-1-methyl-1H-pyrazol-4-yl)-5-fluoropyrimidin-2-yl)amino)cyclohexyl)amino)octyl)-3-((5-(2,6-dioxopiperidin-3-yl)-6-oxo-5,6-dihydro-4H-thieno[2,3-c]pyrrol-2-yl)methyl)urea] | > 90%
≥ 75% | ≥ 75% | 50 to 75% | ≥ 75% | Cn1ncc(-c2nc(N[C@H]3CC[C@H](NCC(=O)NCCCCCNC(=O)NCc4cc5c(s4)C(=O)N(C4CCC(=O)NC4=O)C5)CC3)ncc2Cl)c1CC1CC1 (some centres unmarked) [Compound 16, 2-(((1r,4r)-4-((5-chloro-4-(5-(cyclopropylmethyl)-1-methyl-1H-pyrazol-4-yl)pyrimidin-2-yl)amino)cyclohexyl)amino)-N-(5-(3-((5-(2,6-dioxopiperidin-3-yl)-6-oxo-5,6-dihydro-4H-thieno[2,3-c]pyrrol-2-yl)methyl)ureido)pentyl)acetamide] | > 90%
25 to 50% | 25 to 50% | ≥ 75% | ≥ 75% | CC(C)(C)c1cnc(CSc2cnc(NC(=O)C3CCN(CC(=O)NCCCNC(=O)NCc4cc5c(s4)C(=O)N(C4CCC(=O)NC4=O)C5)CC3)s2)o1 (centres unmarked) [Compound 12, N-(5-(((5-(tert-butyl)oxazol-2-yl)methyl)thio)thiazol-2-yl)-1-(2-((3-(3-((5-(2,6-dioxopiperidin-3-yl)-6-oxo-5,6-dihydro-4H-thieno[2,3-c]pyrrol-2-yl)methyl)ureido)propyl)amino)-2-oxoethyl)piperidine-4-carboxamide] | > 90%
< 25% | < 25% | 50 to 75% | ≥ 75% | CN(CCNC(=O)CN1CCC(C(=O)Nc2ncc(SCc3ncc(C(C)(C)C)o3)s2)CC1)CCNC(=O)NCc1cc2c(s1)C(=O)N(C1CCC(=O)NC1=O)C2 (centres unmarked) [Compound 15, N-(5-(((5-(tert-butyl)oxazol-2-yl)methyl)thio)thiazol-2-yl)-1-(1-(5-(2,6-dioxopiperidin-3-yl)-6-oxo-5,6-dihydro-4H-thieno[2,3-c]pyrrol-2-yl)-7-methyl-3,11-dioxo-2,4,7,10-tetraazadodecan-12-yl)piperidine-4-carboxamide] | 70 to 90%
 |  |  |  | Cn1ncc(-c2nc(N[C@H]3CC[C@H](NCCCCCNCC(=O)NCc4cc5c(s4)C(=O)N(C4CCC(=O)NC4=O)C5)CC3)ncc2Cl)c1CC1CC1 (some centres unmarked) [Compound 60, 2-((5-(((1r,4r)-4-((5-chloro-4-(5-(cyclopropylmethyl)-1-methyl-1H-pyrazol-4-yl)pyrimidin-2-yl)amino)cyclohexyl)amino)pentyl)amino)-N-((5-(2,6-dioxopiperidin-3-yl)-6-oxo-5,6-dihydro-4H-thieno[2,3-c]pyrrol-2-yl)methyl)acetamide] | > 90%
50 to 75% | 50 to 75% | 50 to 75% | ≥ 75% | Cn1ncc(-c2nc(N[C@H]3CC[C@H](NCC(=O)NCCCCCNC(=O)NCc4cc5c(s4)C(=O)N(C4CCC(=O)NC4=O)C5)CC3)ncc2F)c1CC1CC1 (some centres unmarked) [Compound 17, 2-(((1r,4r)-4-((4-(5-(cyclopropylmethyl)-1-methyl-1H-pyrazol-4-yl)-5-fluoropyrimidin-2-yl)amino)cyclohexyl)amino)-N-(5-(3-((5-(2,6-dioxopiperidin-3-yl)-6-oxo-5,6-dihydro-4H-thieno[2,3-c]pyrrol-2-yl)methyl)ureido)pentyl)acetamide] | 
 |  |  |  | Cn1ncc(-c2nc(N[C@H]3CC[C@H](NCC(=O)NCCOCCOCCOCCNCc4cc5c(s4)C(=O)N(C4CCC(=O)NC4=O)C5)CC3)ncc2F)c1CC1CC1 (some centres unmarked) [Compound 62, 2-(((1r,4r)-4-((4-(5-(cyclopropylmethyl)-1-methyl-1H-pyrazol-4-yl)-5-fluoropyrimidin-2-yl)amino)cyclohexyl)amino)-N-(1-(5-(2,6-dioxopiperidin-3-yl)-6-oxo-5,6-dihydro-4H-thieno[2,3-c]pyrrol-2-yl)-5,8,11-trioxa-2-azatridecan-13-yl)acetamide] | > 90%
 |  |  |  | CN(CCNCC(=O)NCc1cc2c(s1)C(=O)N(C1CCC(=O)NC1=O)C2)CCNC(=O)CN1CCC(C(=O)Nc2ncc(SCc3ncc(C(C)(C)C)o3)s2)CC1 (centres unmarked) [Compound 47, N-(5-(((5-(tert-butyl)oxazol-2-yl)methyl)thio)thiazol-2-yl)-1-(1-(5-(2,6-dioxopiperidin-3-yl)-6-oxo-5,6-dihydro-4H-thieno[2,3-c]pyrrol-2-yl)-8-methyl-3,12-dioxo-2,5,8,11-tetraazatridecan-13-yl)piperidine-4-carboxamide] | 70 to 90%
 |  |  |  | CC(C)(C)c1cnc(CSc2cnc(NC(=O)C3CCN(CC(=O)NCCCCCNC(=O)NCc4cc5c(s4)C(=O)N(C4CCC(=O)NC4=O)C5)CC3)s2)o1 (centres unmarked) [Compound 1, 3-[8-Oxo-3-({3-[5-(2-{4-[(5-{[5-(tert-butyl)-1,3-oxazol-2-yl]methylthio}-1,3-thiazol-2-ylamino)carbonyl]-1-piperidyl}acetylamino)pentyl]ureido}methyl)-2-thia-7-azabicyclo[3.3.0]octa-1(5),3-dien-7-yl]-2,6-piperidinedione] | > 90%
25 to 50% | ≥ 75% | 25 to 50% | ≥ 75% | Cn1ncc(-c2nc(N[C@H]3CC[C@H](NCC(=O)NCCCCCNCC(=O)NCc4scc5c4CN(C4CCC(=O)NC4=O)C5=O)CC3)ncc2Cl)c1CC1CC1 (some centres unmarked) [Compound 31, 2-(((1r,4r)-4-((5-chloro-4-(5-(cyclopropylmethyl)-1-methyl-1H-pyrazol-4-yl)pyrimidin-2-yl)amino)cyclohexyl)amino)-N-(5-((2-(((5-(2,6-dioxopiperidin-3-yl)-4-oxo-5,6-dihydro-4H-thieno[3,4-c]pyrrol-1-yl)methyl)amino)-2-oxoethyl)amino)pentyl)acetamide] | > 90%
